Assays:
Assay in all cases: Premier Screen kinase panel (MRC PPU)
Type in all cases: biochemical
[1] = target: BTK (Homo sapiens, UniProt Q06187); conditions: BTK (Entrez BTK), read-out: Residual activity (%)
Protocol: (§1) room temperature with shaking for 30 minutes. The kinase concentration in the eluates was measured by qPCR.
(§2) using ADP-GloTM assay at the MRC PPU International Centre for Kinase Profiling, University of Dundee.
(§3) Conducted by MRC PPU International Centre
(§4) Conducted by MRC PPU International Centre for […]

[2] = target: CAMK1 (Homo sapiens, UniProt Q14012); conditions: CAMK1 (Entrez CAMK1), read-out: Residual activity (%)
Protocol: as §1, §2, §3, §4

[3] = target: CAMKKb (Homo sapiens, UniProt Q96RR4); conditions: CAMKKb (Entrez CAMKK2), read-out: Residual activity (%)
Protocol: as §1, §2, §3, §4

[4] = target: CK1γ2 (Homo sapiens, UniProt P78368); conditions: CK1γ2 (Entrez CSNK1D), read-out: Residual activity (%)
Protocol: as §1, §2, §3, §4

[5] = target: CK1δ (Homo sapiens, UniProt P48730); conditions: CK1δ (Entrez CSNK1G2), read-out: Residual activity (%)
Protocol: as §1, §2, §3, §4

[6] = target: CSK (Homo sapiens, UniProt P41240); conditions: CSK (Entrez CSK), read-out: Residual activity (%)
Protocol: as §1, §2, §3, §4

[7] = target: DYRK1A (Homo sapiens, UniProt Q13627); conditions: DYRK1A (Entrez DYRK1A), read-out: Residual activity (%)
Protocol: as §1, §2, §3, §4

[8] = target: DYRK2 (Homo sapiens, UniProt Q92630); conditions: DYRK2 (Entrez DYRK2), read-out: Residual activity (%)
Protocol: as §1, §2, §3, §4

[9] = target: EIF2AK3 (Homo sapiens, UniProt Q9NZJ5); conditions: EIF2AK3 (Entrez EIF2AK3), read-out: Residual activity (%)
Protocol: as §1, §2, §3, §4

[10] = target: EPH-B2 (Homo sapiens, UniProt P29323); conditions: EPH-B2 (Entrez EPHB2), read-out: Residual activity (%)
Protocol: as §1, §2, §3, §4

[11] = target: ERK1 (Homo sapiens, UniProt P27361); conditions: ERK1 (Entrez MAPK3), read-out: Residual activity (%)
Protocol: as §1, §2, §3, §4

[12] = target: HIPK3 (Homo sapiens, UniProt Q9H422); conditions: HIPK3 (Entrez HIPK3), read-out: Residual activity (%)
Protocol: as §1, §2, §3, §4

[13] = target: IGF-1R (Homo sapiens, UniProt P08069); conditions: IGF-1R (Entrez IGF1R), read-out: Residual activity (%)
Protocol: as §1, §2, §3, §4

[14] = target: JNK1 (Homo sapiens, UniProt P45983); conditions: JNK1 (Entrez MAPK8), read-out: Residual activity (%)
Protocol: as §1, §2, §3, §4

[15] = target: MAPKAP-K3 (Homo sapiens, UniProt Q16644); conditions: MAPKAP-K3 (Entrez MAPKAPK3), read-out: Residual activity (%)
Protocol: as §1, §2, §3, §4

[16] = target: MARK1 (Homo sapiens, UniProt Q9P0L2); conditions: MARK1 (Entrez MARK1), read-out: Residual activity (%)
Protocol: as §1, §2, §3, §4

[17] = target: MARK3 (Homo sapiens, UniProt P27448); conditions: MARK3 (Entrez MARK3), read-out: Residual activity (%)
Protocol: as §1, §2, §3, §4

[18] = target: MELK (Homo sapiens, UniProt Q14680); conditions: MELK (Entrez MELK), read-out: Residual activity (%)
Protocol: as §1, §2, §3, §4

[19] = target: MKK1 (Homo sapiens, UniProt Q02750); conditions: MKK1 (Entrez MAP2K1), read-out: Residual activity (%)
Protocol: as §1, §2, §3, §4

[20] = target: MNK1 (Homo sapiens, UniProt Q9BUB5); conditions: MNK1 (Entrez MKNK1), read-out: Residual activity (%)
Protocol: as §1, §2, §3, §4

[21] = target: PAK4 (Homo sapiens, UniProt O96013); conditions: PAK4 (Entrez PAK4), read-out: Residual activity (%)
Protocol: as §1, §2, §3, §4

[22] = target: PAK5 (Homo sapiens, UniProt Q9P286); conditions: PAK5 (Entrez PAK5), read-out: Residual activity (%)
Protocol: as §1, §2, §3, §4

[23] = target: PIM1 (Homo sapiens, UniProt P11309); conditions: PIM1 (Entrez PIM1), read-out: Residual activity (%)
Protocol: as §1, §2, §3, §4

[24] = target: PKBa (Homo sapiens, UniProt P31749); conditions: PKBa (Entrez AKT1), read-out: Residual activity (%)
Protocol: as §1, §2, §3, §4

[25] = target: PKBb (Homo sapiens, UniProt P31751); conditions: PKBb (Entrez AKT2), read-out: Residual activity (%)
Protocol: as §1, §2, §3, §4

[26] = target: RIPK2 (Homo sapiens, UniProt O43353); conditions: RIPK2 (Entrez RIPK2), read-out: Residual activity (%)
Protocol: as §1, §2, §3, §4

[27] = target: SGK1 (Homo sapiens, UniProt O00141); conditions: SGK1 (Entrez SGK1), read-out: Residual activity (%)
Protocol: as §1, §2, §3, §4

[28] = target: SIK2 (Homo sapiens, UniProt Q9H0K1); conditions: SIK2 (Entrez SIK2), read-out: Residual activity (%)
Protocol: as §1, §2, §3, §4

[29] = target: TTBK1 (Homo sapiens, UniProt Q5TCY1); conditions: TTBK1 (Entrez TTBK1), read-out: Residual activity (%)
Protocol: as §1, §2, §3, §4

[30] = target: TTBK2 (Homo sapiens, UniProt Q6IQ55); conditions: TTBK2 (Entrez TTBK2), read-out: Residual activity (%)
Protocol: as §1, §2, §3, §4

[31] = target: WNK1 (Homo sapiens, UniProt Q9H4A3); conditions: WNK1 (Entrez WNK1), read-out: Residual activity (%)
Protocol: as §1, §2, §3, §4

Sequence of MELK (Q14680 whole entry): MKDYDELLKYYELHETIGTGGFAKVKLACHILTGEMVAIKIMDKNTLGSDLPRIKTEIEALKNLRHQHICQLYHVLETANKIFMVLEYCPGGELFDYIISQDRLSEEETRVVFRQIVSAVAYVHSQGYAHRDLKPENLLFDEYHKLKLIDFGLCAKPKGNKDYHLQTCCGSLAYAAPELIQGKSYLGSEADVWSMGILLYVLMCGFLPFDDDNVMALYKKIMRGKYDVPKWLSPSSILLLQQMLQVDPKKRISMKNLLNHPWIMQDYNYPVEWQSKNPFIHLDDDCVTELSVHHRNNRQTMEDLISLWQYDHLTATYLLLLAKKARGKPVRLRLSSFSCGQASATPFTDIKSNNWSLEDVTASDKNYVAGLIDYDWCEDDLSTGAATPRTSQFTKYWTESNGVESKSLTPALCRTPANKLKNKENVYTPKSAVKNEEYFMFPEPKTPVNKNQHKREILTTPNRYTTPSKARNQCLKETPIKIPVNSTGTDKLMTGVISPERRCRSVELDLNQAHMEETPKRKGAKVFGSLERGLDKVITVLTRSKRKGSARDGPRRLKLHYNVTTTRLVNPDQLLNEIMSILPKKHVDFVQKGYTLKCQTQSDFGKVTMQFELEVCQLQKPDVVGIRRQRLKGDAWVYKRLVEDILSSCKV
Sequence of WNK1 (Q9H4A3 whole entry): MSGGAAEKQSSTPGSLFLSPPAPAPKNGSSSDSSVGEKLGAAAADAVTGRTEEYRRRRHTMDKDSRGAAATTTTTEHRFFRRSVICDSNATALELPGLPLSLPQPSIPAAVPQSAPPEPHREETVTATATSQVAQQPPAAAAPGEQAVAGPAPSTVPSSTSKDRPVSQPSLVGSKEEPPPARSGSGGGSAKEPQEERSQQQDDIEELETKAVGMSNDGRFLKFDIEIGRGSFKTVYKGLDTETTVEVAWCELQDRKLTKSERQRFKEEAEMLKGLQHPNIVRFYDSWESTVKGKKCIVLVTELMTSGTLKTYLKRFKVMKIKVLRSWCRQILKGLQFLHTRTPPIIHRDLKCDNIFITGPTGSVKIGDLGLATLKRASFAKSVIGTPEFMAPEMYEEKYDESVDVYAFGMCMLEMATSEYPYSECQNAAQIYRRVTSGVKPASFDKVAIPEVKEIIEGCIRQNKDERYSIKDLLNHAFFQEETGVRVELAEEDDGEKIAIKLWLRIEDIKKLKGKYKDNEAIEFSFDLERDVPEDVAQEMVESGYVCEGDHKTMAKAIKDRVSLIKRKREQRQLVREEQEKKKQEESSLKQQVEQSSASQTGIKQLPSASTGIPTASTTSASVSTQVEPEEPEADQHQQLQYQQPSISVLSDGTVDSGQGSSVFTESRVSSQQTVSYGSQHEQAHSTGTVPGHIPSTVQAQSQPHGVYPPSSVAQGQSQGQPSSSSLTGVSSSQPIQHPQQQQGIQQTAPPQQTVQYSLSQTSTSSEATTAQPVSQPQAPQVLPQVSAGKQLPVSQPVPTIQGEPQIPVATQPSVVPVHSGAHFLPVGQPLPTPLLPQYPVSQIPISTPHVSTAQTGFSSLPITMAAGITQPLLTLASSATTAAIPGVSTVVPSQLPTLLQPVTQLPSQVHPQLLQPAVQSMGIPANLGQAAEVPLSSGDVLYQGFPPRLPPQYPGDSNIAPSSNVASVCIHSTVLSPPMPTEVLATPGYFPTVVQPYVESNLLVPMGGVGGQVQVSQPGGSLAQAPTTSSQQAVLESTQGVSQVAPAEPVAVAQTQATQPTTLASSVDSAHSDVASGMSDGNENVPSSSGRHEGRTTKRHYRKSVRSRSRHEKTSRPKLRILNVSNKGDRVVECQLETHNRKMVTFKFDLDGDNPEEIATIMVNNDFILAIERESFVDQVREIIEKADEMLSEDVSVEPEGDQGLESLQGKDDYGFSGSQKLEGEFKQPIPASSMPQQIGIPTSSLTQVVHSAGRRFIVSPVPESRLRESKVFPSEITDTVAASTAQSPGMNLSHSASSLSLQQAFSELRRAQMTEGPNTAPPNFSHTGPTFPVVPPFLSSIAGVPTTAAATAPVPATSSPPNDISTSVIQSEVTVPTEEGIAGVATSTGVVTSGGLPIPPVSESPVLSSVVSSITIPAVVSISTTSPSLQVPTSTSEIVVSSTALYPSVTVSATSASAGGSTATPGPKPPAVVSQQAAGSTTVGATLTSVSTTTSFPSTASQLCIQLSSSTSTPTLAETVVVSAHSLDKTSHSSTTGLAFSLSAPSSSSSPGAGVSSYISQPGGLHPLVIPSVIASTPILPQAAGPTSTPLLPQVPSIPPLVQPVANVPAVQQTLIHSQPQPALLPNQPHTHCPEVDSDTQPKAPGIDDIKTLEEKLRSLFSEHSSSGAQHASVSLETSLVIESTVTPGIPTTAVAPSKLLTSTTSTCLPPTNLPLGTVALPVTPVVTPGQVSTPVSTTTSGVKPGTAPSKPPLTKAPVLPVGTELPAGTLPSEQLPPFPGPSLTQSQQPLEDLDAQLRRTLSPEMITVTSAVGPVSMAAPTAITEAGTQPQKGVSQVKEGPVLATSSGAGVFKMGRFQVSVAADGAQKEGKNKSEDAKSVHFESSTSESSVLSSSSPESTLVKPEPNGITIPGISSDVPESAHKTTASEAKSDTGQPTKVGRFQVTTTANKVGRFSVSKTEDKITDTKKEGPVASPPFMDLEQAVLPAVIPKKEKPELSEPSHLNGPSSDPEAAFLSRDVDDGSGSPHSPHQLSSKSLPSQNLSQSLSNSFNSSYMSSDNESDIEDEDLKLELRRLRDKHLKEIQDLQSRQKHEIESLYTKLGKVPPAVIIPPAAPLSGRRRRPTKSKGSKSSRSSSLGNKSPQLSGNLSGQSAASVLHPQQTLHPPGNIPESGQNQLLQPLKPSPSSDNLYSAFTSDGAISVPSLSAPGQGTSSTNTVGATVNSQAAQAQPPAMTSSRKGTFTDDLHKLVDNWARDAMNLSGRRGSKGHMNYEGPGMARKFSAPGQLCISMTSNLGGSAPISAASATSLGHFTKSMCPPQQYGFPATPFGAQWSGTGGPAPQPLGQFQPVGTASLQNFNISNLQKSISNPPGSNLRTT
Sequence of SGK1 (O00141 whole entry): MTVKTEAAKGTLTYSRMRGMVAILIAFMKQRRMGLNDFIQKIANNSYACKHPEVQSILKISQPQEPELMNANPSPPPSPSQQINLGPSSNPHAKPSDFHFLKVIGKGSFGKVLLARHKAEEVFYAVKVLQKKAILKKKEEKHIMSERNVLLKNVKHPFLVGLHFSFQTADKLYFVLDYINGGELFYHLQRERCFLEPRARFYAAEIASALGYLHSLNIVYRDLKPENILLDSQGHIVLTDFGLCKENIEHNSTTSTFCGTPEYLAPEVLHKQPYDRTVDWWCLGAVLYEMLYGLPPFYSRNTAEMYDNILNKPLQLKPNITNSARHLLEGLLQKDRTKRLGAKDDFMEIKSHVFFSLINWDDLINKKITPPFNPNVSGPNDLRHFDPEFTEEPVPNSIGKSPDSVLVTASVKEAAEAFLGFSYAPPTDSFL
Sequence of MAPKAP-K3 (Q16644 whole entry): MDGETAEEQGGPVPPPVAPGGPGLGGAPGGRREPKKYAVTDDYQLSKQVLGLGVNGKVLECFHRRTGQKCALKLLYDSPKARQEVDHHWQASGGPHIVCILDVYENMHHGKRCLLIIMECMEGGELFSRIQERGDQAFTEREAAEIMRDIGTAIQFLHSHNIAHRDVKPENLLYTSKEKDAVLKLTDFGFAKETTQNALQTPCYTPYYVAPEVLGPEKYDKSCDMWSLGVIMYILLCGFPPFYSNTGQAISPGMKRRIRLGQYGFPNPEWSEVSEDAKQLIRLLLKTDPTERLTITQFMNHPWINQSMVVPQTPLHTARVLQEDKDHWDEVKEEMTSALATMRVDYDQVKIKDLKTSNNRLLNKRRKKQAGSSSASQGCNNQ
Sequence of CK1γ2 (P78368 whole entry): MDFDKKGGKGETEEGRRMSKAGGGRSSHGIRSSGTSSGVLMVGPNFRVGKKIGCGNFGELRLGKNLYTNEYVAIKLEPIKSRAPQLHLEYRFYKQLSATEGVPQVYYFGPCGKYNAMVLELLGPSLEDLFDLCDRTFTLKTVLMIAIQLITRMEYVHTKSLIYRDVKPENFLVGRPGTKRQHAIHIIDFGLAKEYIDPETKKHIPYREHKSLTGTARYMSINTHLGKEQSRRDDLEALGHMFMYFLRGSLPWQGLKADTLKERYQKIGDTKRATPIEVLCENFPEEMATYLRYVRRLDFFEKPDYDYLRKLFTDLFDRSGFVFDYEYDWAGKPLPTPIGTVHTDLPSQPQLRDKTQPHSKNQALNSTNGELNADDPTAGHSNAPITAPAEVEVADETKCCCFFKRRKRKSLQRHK
Sequence of PKBb (P31751 whole entry): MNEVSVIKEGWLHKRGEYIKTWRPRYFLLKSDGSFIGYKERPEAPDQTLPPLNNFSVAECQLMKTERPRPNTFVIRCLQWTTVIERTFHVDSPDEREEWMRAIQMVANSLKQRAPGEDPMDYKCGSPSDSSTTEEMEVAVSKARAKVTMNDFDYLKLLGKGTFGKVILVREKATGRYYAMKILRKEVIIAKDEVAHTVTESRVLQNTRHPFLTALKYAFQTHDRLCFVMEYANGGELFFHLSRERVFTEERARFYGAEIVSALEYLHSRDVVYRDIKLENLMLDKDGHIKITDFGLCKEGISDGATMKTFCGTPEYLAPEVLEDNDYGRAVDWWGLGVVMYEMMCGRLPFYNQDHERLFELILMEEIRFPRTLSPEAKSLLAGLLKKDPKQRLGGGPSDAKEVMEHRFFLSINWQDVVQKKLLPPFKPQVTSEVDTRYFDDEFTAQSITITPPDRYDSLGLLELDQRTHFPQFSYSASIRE
Sequence of PIM1 (P11309 whole entry): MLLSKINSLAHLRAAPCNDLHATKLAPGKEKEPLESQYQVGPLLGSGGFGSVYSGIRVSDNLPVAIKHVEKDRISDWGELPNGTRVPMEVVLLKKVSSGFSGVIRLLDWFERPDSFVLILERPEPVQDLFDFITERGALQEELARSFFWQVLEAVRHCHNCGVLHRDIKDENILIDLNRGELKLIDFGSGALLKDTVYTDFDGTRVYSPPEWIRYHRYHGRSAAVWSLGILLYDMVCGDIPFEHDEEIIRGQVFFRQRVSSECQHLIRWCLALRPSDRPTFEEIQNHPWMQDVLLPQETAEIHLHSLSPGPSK

Compound `COc1ccc(Nc2ncnc3c2ccn3-c2ccc(C)c(C)c2)cc1Cl` [compound 36] has a remaining activity at 1 µM [1] of 99%, a remaining activity at 1 µM [2] of 99% and a remaining activity at 1 µM [3] of 96%. It also gave a remaining activity at 1 µM [4] of 92%, a remaining activity at 1 µM [5] of 92% and a remaining activity at 1 µM [6] of 104%. The remaining activity at 1 µM [7] was 89%, the remaining activity at 1 µM [8] was 108% and the remaining activity at 1 µM [9] was 76%. It also gave a remaining activity at 1 µM [10] of 97%, a remaining activity at 1 µM [11] of 62% and a remaining activity at 1 µM [12] of 76%. It also gave a remaining activity at 1 µM [13] of 119%, a remaining activity at 1 µM [14] of 85% and a remaining activity at 1 µM [15] of 101%. It also gave a remaining activity at 1 µM [16] of 113%, a remaining activity at 1 µM [17] of 104% and a remaining activity at 1 µM [18] of 92%. For the same compound, the remaining activity at 1 µM [19] was 112%, the remaining activity at 1 µM [20] was 87% and the remaining activity at 1 µM [21] was 78%. It also gave a remaining activity at 1 µM [22] of 94%, a remaining activity at 1 µM [23] of 75% and a remaining activity at 1 µM [24] of 90%. For the same compound, the remaining activity at 1 µM [25] was 103%, the remaining activity at 1 µM [26] was 92% and the remaining activity at 1 µM [27] was 97%. For the same compound, the remaining activity at 1 µM [28] was 109%, the remaining activity at 1 µM [29] was 68% and the remaining activity at 1 µM [30] was 70%. For the same compound, the remaining activity at 1 µM [31] was 105%.

From paper PMC10211317, “Identification of ARUK2002821 as an isoform-selective PI5P4Kα inhibitor” (RSC Medicinal Chemistry, 2023)
